Data: patent publication US20240392343A1, “METHODS TO SCREEN YEAST TO IDENTIFY XENOBIOTICS THAT TARGET PESTS, PATHOGENS AND PARASITES” (The Governing Council of the University of Toronto, priority 2023, published 2024)
“Also recorded” adds a separate entry of the source.

Legend:
M. incognita CYP4731A3 = assay: CYPce assay: yeast-based M. incognita CYP expression screen and dose-response; assay type: cell-based, Meloidogyne incognita; conditions: 19 M. incognita CYP-expressing yeast strains vs empty vector, 50 μM in screen
Source text: (§1) Each data point corresponds to an individual yeast strain expressing a unique M. incognita CYP enzyme. The data point above the dotted line has a p-value <0.01, and corresponds to the strain expressing M. incognita CYP4731A3. […] Unmodified sel-A and metabolites M2 and M3 are indicated. […] AUC is the area under the curve for M2 and M3 combined, calculated at 260 nm. Error bars are SEM. The p-value was obtained from an unpaired one-tailed Student's t-test comparing the means of empty vector control and CYP4731A3 expressing yeast. M1 was not detectable.
(§2) Each data point corresponds to an individual yeast strain expressing a unique M. incognita P450 enzyme. The data point above the dotted line has a p-value <0.01 and corresponds to the strain expressing M. incognita CYP4731A3. […] Viability relative to untreated controls is indicated by the grey-coded scale. […] Peaks corresponding to the unmodified cyproside-3 and the three cyproside-3 metabolites visible using the HPLC-DAD system (M1, M2 and M3) are indicated. […] AUC is the area under the curve, error bars indicate SEM. […]
With that single strain, a library of small molecules are screened for those that can be bioconverted by the heterologously-expressed enzyme into a product that kills the cells expressing the enzyme. As set out herein, the growth of cells was measured, for example, by a variety of means, including optical density. […]

Mi-CYP4731A3 = assay: HPLC analysis of lysates of yeast expressing CYP4731A3; assay type: in vitro ADME, Meloidogyne incognita; conditions: lysates of yeast treated with 100 μM compound
Source text: as §1
as §2, with “SEM. The p-values were obtained from unpaired two-tailed Student's t-tests comparing the means of the empty vector control and CYP4731A3 expressing yeast.” for “SEM.”

C. elegans P450 CYP-35D1 = target: T1, C. elegans P450 CYP-35D1 (Caenorhabditis elegans, UniProt O45364); assay: CYPce assay: viability of yeast expressing CYP-35D1 vs empty vector; assay type: cell-based; conditions: yeast expressing CYP-35D1 vs empty vector yeast; dose-response
T1 construct: expressed in transfected cells; host or cells: Saccharomyces cerevisiae (yeast), expression vector vs empty vector
T1 sequence (O45364 1-499): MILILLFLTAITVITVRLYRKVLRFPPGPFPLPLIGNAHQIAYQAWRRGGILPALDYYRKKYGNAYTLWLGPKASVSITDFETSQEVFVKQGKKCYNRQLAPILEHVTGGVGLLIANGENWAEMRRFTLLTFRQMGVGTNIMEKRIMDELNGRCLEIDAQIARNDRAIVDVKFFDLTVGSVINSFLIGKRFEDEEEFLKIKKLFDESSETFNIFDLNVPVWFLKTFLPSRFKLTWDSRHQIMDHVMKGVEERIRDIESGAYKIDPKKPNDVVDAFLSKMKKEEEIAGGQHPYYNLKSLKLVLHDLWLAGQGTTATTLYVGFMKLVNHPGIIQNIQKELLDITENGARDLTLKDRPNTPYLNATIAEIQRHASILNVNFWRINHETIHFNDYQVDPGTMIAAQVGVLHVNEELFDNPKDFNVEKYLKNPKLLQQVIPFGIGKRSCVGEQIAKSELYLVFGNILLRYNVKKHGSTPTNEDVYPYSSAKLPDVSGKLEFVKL
Source text: (§3) In this condition cyproside-3 is not metabolized into a lethal product and yeast are viable. […] CYP-35D1 is capable of metabolizing cyproside-3 into an active metabolite which leads to reduced viability in the yeast. […] Viability relative to untreated controls is indicated by the gray coded scale. […] AUC is the area under the curve, error bars indicate SEM. The p-values were obtained from unpaired two-tailed Student's t-tests comparing the means of the empty vector control and CYP-35D1 expressing yeast. […] Peaks corresponding to the unmodified cyproside-3 and the three cyproside-3 metabolites visible using our HPLC-DAD system (M1, M2 and M3) are indicated.
CYPce (pronounced sip-sea) is an acronym for the heterologous expression of CYPs in S. cerevisiae for the purpose of identifying P450s that can bioactivate small molecules into lethal products that may or may not be reactive. […]
(§4) With that single strain, a library of small molecules are screened for those that can be bioconverted by the heterologously-expressed enzyme into a product that kills the cells expressing the enzyme. As set out herein, the growth of cells was measured, for example, by a variety of means, including optical density.

CYP-35D1 = target: T2, CYP-35D1 (Caenorhabditis elegans, UniProt O45364); assay: HPLC / LCMS analysis of cyproside-3 metabolites, CYP-35D1; assay type: in vitro ADME, C. elegans; conditions: lysates of yeast after treatment with 100 μM cyproside-3
T2 construct: expressed in transfected cells; host or cells: Saccharomyces cerevisiae (yeast), expression vector vs empty vector
T2 sequence (O45364 1-499): T1 sequence (O45364 1-499)
Source text: as §3
Cytochrome P450 enzymes (CYPs) catalyze the S-oxidation of cyproside-3 which produces an electrophilic sulfoxide metabolite. This sulfoxide metabolite reacts with glutathione (GSH) and is further processed to γ-Glutamyl-Cysteine (γ-Glu-Cys), Cysteinylglycine (Cys-Gly) and cysteine (Cys) conjugates.

[1] = system: diverse nematode species (non-parasitic and plant parasitic species); assay: Dose-response analysis on diverse nematode species (FIG. 10); assay type: in vivo; conditions: dose-response relative to solvent control
Source text: (§5) Dose-response analysis of cyproside-3 and tioxazafen on diverse nematode species and off-target systems including human cells (HEK293 and HepG2), fungi (Saccharomyces cerevisiae and Candida albicans) and plant beneficial rhizobacteria (Pseudomonas simiae WCS417 and Pseudomonas defensor WCS374). The activity of the compound relative to the solvent control in each assay is indicated by the gray coded scale.

[2] = system: human cells (HEK293 and HepG2), fungi (Saccharomyces cerevisiae and Candida albicans) and plant beneficial rhizobacteria (Pseudomonas simiae WCS417 and …); assay: Dose-response analysis on off-target systems (FIG. 10); assay type: cell-based; conditions: HEK293, HepG2, S. cerevisiae, C. albicans, P. simiae WCS417, P. defensor WCS374; relative to solvent control
Source text: as §5

Meloidogyne incognita = assay: Soil-based tomato root infection assay; assay type: in vivo; conditions: 6 weeks of infection in soil drenched with chemical
Source text: Cyprosides 3-2, 3-3, and 3-4 are structural analogs of cyproside-3. […] All error bars represent SEM, p-values calculated using an unpaired t test vs. solvent controls. […] Cyprosides 3-7, 3-12, 3-25, and 3-26 are structural analogs of cyproside-3. The other data points represent negative (water, DMSO) and positive (fluopyram, tioxazafen) controls. All error bars represent SEM.
There were no significant adverse effects on plant growth by the cyproside-3s as evident by the resulting root mass (FIG. 12C).

[3] = system: cytochrome P450s in C. elegans and diverse PPN species; assay: HPLC of cyproside-3 parent and metabolites in whole worms with pan-P450 inhibitor 1-ABT; assay type: in vivo
Source text: (§6) FIGS. A-A′″ show HPLC chromatograms with cyproside-3 (abbreviated cypros-3) unmodified parent molecule (P) and metabolite (M1-M5) peaks indicated. MP1 is a cyproside-3 metabolite uniquely produced in P. penetrans. Y-axis indicates absorbance wavelength in nm. FIGS. B-B′″ show quantification of unmodified cyproside-3 parent (P) and metabolite peaks from A-A′″. Error bars indicate SEM, p-values calculated using unpaired t-test. FIGS. C-C′″ show the proportion mobile worms relative to DMSO solvent controls after 72-hour exposure to 20 μM cyproside-3 (C. elegans) or 60 μM cyproside-3 (all other species). P-values calculated using unpaired t-test.
(§7) Using the pan-P450 inhibitor (1-ABT), cyproside-3's metabolism was inhibited in vivo (FIGS. 11A and 11B).

[4] = system: C. elegans and diverse PPN species; assay: Worm mobility after cyproside-3 exposure with 1-ABT; assay type: in vivo; conditions: 72-hour exposure to 20 μM cyproside-3 (C. elegans) or 60 μM cyproside-3 (all other species)
Source text: as §6, §7

C. elegans P450 CYP-35C1 = assay: CYPce assay: viability of yeast expressing CYP-35C1 vs empty vector; assay type: cell-based; conditions: yeast expressing CYP-35C1 vs empty vector yeast; dose-response
Source text: (§8) Viability relative to untreated controls is indicated by the gray coded scale. […] The p-values were obtained from unpaired two-tailed Student's t-tests comparing the means of the empty vector control and CYP-35C1 expressing yeast.
CYPce (pronounced sip-sea) is an acronym for the heterologous expression of CYPs in S. cerevisiae for the purpose of identifying P450s that can bioactivate small molecules into lethal products that may or may not be reactive. The CYPce assay relies on culturing a single strain of yeast (S. cerevisiae) (or any convenient cell type in other embodiments) that expresses a single P450 enzyme (or any other small molecule modifying enzyme in other embodiments) from a single targeted organism (FIG. 2).
as §4

CYP-35C1 = assay type: in vitro ADME; conditions: C. elegans
Source text: as §8
FIGS. 6A-C show mass spectrometry (MS) data for metabolite M1-M3 HPLC fractions and untreated control fractions, as well as MS/MS fragmentation data for selected masses. Structures of γ-glutamylcysteine (γ-Glu-Cys) (A), glutathione (B), and cysteine (C) conjugates of a selectivin-A (sel-A) electrophilic sulfoxide metabolite are shown, along with fragmentations that produce masses found in the MS/MS plots. […] S-oxidation produces an electrophilic sulfoxide metabolite that reacts with glutathione (GSH) either spontaneously or via glutathione-S-transferase (GST), and is likely further processed to 7-Glu-Cys and cysteine conjugates via phytochelatin synthase (PCS) and 7-glutamyl transferase (GGT), respectively. Cytochrome p450 enzymes (CYPs) likely mediate S-oxidation.

Structure (SMILES) | yeast killing dependent on Mi-CYP4731A3 (M. incognita CYP4731A3) | metabolism by Mi-CYP4731A3 in yeast (HPLC) (Mi-CYP4731A3) | yeast killing dependent on CYP-35D1 (C. elegans P450 CYP-35D1) | metabolism by CYP-35D1 (HPLC) (CYP-35D1) | phylogenetic activity profile: activity on nematode species [1] | activity against non-targeted cells and organisms [2] | control of root infection by M. incognita (eggs per milligram of tomato root tissue) (Meloidogyne incognita) | effect of 1-ABT on cyproside-3's metabolism in vivo [3] | effect of 1-ABT on cyproside-3's effects on the worms (mobility) [4] | yeast killing dependent on CYP-35C1 (C. elegans P450 CYP-35C1) | nature of product of metabolism by CYP-35C1 (LCMS and NMR) (CYP-35C1) | metabolism by CYP-35C1 in yeast (HPLC) (CYP-35C1; 100 μM)
CCSc1nnc(-c2ccc(Cl)cc2)o1 [cyproside-3, 2-(4-chlorophenyl)-5-(ethylthio)-1,3,4-oxadiazole] | can kill yeast in a Mi-CYP4731A3-dependent manner | metabolized by Mi-CYP4731A3 in yeast | killed yeast in a manner dependent on C. elegans P450 CYP-35D1 | metabolized by CYP-35D1 into a reactive product | high selectivity for all nematode species tested; also recorded: broad-spectrum activity in plant-parasitic nematodes | little-to-no activity against non-targeted cells and organisms | demonstrated activity |  |  |  |  | 
Nn1nnc2ccccc21 [Cyproside 1-ABT, reference compound] |  |  |  |  |  |  |  | inhibited | inhibited cyproside-3's effects on the worms |  |  | 
Clc1ccc(-c2cn3ccsc3n2)cc1 [selectivin-A, 6-(4-chlorophenyl)imidazo[2,1-b]thiazole] | kills yeast in a Mi-CYP4731A3-dependent manner | metabolized by Mi-CYP4731A3 in yeast |  |  |  |  |  |  |  | kills yeast in a manner dependent on the C. elegans P450 CYP-35C1 | metabolized by CYP-35C1 into a reactive lethal product | metabolized by CYP-35C1 in yeast
